# Activity calls are given as the source filed them.
# Experiments:
# [1] = biological target: Peroxisome proliferator-activated receptor gamma/Nuclear receptor coactivator 2 (Homo sapiens, UniProt P37231); test: (§1) TR-FRET dose response biochemical High Throughput Screening assay for agonists of the steroid receptor coactivator 2 (SRC-2) recruitment by the peroxisome proliferator-activated receptor gamma (PPAR gamma): non-selective agonists. [Related pubchem assays: 1297, 1032 ]; format: functional
# Sequence of Peroxisome proliferator-activated receptor gamma/Nuclear receptor coactivator 2 (P37231 whole entry): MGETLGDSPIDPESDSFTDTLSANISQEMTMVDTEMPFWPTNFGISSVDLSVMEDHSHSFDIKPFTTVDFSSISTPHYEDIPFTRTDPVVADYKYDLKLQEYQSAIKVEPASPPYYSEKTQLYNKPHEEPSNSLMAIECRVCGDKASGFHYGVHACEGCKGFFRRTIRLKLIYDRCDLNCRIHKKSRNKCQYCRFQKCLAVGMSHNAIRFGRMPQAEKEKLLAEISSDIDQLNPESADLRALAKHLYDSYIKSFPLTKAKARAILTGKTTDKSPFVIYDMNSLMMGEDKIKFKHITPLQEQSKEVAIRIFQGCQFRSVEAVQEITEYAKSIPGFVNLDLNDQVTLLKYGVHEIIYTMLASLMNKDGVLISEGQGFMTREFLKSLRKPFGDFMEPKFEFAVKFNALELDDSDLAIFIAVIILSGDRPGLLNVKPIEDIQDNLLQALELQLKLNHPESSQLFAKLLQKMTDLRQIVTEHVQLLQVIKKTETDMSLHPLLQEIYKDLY
# Sequence of Peroxisome proliferator-activated receptor gamma/Nuclear receptor coactivator 2 (Q15596 whole entry, further chain): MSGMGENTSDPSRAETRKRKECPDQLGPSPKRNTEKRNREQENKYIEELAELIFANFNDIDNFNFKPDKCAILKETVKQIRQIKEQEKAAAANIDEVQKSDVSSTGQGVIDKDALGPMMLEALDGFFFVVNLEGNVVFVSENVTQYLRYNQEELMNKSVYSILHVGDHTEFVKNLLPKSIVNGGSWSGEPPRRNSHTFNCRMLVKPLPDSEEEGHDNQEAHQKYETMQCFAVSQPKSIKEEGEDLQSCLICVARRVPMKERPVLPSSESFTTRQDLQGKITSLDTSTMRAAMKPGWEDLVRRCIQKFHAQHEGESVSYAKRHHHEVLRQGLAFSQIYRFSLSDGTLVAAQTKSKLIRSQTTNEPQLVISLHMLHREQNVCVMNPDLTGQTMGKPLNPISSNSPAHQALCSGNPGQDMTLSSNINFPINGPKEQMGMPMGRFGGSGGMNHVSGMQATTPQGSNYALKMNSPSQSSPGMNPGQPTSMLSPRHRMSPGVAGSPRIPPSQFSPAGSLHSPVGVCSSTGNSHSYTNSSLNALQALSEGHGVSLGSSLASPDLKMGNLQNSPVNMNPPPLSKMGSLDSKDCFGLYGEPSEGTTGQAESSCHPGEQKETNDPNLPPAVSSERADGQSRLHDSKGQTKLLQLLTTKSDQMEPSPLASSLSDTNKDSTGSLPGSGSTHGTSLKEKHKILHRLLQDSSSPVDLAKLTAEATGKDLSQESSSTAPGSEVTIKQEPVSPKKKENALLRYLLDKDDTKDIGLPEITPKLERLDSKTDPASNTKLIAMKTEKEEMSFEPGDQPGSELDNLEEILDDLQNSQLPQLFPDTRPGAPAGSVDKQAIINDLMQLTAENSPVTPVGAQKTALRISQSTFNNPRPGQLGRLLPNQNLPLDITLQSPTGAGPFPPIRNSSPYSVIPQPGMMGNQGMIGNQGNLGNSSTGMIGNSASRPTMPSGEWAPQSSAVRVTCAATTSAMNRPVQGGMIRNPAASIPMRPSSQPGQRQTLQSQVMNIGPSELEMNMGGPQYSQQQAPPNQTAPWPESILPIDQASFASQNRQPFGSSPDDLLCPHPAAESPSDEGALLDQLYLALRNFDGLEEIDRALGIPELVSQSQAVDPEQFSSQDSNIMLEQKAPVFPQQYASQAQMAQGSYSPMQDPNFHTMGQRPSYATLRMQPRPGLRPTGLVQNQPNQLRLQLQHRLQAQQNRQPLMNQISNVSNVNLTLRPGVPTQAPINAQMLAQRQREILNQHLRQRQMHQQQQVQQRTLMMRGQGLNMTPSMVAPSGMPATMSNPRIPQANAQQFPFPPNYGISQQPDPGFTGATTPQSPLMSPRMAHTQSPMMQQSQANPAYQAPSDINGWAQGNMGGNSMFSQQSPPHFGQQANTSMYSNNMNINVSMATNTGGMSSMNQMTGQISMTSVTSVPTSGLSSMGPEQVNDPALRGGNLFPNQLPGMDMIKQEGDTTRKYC
# [2] = cAMP pathway inhibition in counterscreen cell line – TR-FRET cAMP detection, counter-screen for MC4R biased antagonist project, dose response (AID 602305); format: functional, cell-based;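 note: U2OS cells stimulated with forskolin near its EC80 as the cAMP inducer; potency is for inhibition of forskolin-stimulated cAMP signaling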
# [3] = biological target: Peroxisome proliferator-activated receptor gamma/Nuclear receptor coactivator 1 (Homo sapiens, UniProt P37231); test: as §1, with “1 (SRC-1)” for “2 (SRC-2)”, “assays (depositor defined):AID1300, AID1808, AID504735, AID631]” for “assays: 1297, 1032 ]”; format: protein assay
# Sequence of Peroxisome proliferator-activated receptor gamma/Nuclear receptor coactivator 1 (P37231 whole entry): as the sequence (P37231 whole entry) above
# Sequence of Peroxisome proliferator-activated receptor gamma/Nuclear receptor coactivator 1 (Q15788 whole entry, further chain): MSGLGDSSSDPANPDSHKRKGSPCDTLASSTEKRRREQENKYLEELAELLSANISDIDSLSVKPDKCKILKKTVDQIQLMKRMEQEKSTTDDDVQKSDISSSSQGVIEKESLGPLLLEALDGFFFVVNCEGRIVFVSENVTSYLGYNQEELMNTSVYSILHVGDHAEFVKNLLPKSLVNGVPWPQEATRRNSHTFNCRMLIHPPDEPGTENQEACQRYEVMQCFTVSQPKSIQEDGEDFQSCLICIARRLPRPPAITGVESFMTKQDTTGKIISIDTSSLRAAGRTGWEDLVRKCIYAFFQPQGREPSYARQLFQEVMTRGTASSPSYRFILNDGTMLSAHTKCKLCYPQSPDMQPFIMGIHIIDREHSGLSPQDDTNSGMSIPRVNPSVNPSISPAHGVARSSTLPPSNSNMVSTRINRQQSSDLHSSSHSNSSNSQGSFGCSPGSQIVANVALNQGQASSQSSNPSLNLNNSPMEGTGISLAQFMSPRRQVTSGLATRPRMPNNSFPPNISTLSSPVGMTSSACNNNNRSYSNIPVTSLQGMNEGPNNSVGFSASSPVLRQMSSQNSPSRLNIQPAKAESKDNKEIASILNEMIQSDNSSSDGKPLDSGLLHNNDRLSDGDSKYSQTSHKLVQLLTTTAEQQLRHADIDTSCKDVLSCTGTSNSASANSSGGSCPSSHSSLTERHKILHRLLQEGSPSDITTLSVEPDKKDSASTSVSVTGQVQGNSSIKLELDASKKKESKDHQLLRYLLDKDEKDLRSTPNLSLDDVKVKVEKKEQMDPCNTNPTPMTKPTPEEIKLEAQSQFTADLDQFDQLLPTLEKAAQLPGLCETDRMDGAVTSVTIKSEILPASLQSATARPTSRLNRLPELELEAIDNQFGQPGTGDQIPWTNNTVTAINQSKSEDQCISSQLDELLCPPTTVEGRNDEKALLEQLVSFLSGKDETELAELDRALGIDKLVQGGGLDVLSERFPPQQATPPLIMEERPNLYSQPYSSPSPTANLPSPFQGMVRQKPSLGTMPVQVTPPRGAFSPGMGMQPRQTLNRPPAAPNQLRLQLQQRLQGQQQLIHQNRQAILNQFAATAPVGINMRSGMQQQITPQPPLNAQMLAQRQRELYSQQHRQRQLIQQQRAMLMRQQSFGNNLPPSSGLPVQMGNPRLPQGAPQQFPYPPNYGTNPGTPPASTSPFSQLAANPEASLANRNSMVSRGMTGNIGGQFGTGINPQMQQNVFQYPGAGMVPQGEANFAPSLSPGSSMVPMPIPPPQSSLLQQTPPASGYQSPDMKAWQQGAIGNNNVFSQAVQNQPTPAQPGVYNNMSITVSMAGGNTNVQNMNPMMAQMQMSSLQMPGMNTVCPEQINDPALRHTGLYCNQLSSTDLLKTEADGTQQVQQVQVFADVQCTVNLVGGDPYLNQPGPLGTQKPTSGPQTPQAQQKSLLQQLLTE
# Melanocortin receptor 4 = Melanocortin receptor 4 (Homo sapiens, UniProt P32245); test: inhibitors of MC4R cAMP signaling – cell-based, TR-FRET, biased antagonists, dose response (AID 602298); format: functional;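 note: antagonist potency against agonist-stimulated cAMP production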
# Sequence of Melanocortin receptor 4 (P32245 whole entry): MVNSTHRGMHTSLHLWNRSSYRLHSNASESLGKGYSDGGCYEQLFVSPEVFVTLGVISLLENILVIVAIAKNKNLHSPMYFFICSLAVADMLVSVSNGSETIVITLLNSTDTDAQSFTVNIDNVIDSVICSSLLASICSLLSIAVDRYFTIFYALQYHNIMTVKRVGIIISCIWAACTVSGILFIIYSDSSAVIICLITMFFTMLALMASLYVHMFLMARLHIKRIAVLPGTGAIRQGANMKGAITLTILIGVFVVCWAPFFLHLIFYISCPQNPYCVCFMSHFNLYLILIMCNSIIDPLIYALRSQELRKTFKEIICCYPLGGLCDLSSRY
# [4] = biological target: Peroxisome proliferator-activated receptor gamma/Nuclear receptor coactivator 3 (Homo sapiens, UniProt P37231); test: as §1, with “3 (SRC-3)” for “2 (SRC-2)”, “1301 (Confirmation screen.), 1048 (Primary screen.)]” for “1297, 1032 ]”; format: functional
# [5] = biological target: T1, Endoribonuclease toxin MazF (Escherichia coli K-12, UniProt P0AE70); test: activation of MazEF endoribonuclease cleavage – biochemical, fluorescence, single-stranded RNA substrate, uHTS hits, dose response (AID 588481); format: functional
# T1 sequence (P0AE70 whole entry): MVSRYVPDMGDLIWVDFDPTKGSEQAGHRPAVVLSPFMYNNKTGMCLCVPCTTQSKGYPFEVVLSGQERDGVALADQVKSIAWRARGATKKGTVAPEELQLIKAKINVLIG
# [6] = biological target: T1, Endoribonuclease toxin MazF; test: substrate-only fluorescence increase artefacts – biochemical, single-stranded RNase substrate, counter-screen for MazEF activator project, dose response (AID 588502); format: functional
# [7] = biological target: T2, Nucleotide-binding oligomerization domain-containing protein 1 (Homo sapiens, UniProt Q9Y239); test: blockers of NOD1 pathway activity – revised, SAR follow-up (AID 2333); format: functional
# T2 sequence (Q9Y239 whole entry): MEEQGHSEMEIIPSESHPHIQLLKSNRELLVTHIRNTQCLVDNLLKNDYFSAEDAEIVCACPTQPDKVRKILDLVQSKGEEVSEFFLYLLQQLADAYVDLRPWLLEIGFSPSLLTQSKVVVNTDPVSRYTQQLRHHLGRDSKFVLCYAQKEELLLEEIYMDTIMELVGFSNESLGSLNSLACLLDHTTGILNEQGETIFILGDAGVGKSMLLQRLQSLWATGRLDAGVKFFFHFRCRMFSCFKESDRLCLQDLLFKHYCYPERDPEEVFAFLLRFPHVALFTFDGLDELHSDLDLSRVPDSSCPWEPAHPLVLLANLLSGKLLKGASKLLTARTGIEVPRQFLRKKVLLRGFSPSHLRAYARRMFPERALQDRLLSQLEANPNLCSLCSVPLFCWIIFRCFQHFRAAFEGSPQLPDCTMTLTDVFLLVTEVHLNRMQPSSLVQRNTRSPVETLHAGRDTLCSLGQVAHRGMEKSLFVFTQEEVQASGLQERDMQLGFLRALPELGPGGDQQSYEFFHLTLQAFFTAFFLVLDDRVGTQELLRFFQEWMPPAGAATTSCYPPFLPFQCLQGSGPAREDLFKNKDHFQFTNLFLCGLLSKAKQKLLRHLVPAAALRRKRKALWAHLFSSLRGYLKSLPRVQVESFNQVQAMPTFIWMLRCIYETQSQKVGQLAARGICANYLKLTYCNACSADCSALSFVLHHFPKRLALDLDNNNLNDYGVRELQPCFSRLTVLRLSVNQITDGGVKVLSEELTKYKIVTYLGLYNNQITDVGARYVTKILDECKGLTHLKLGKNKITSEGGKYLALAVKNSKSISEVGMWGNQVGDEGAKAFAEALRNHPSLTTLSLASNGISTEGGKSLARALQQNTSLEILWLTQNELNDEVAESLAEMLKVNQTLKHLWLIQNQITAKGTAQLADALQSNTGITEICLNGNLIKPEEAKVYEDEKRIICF
# HEK293 [8] = test: cells; settings: Homo sapiens
# Tumor necrosis factor = Tumor necrosis factor (Homo sapiens, UniProt P01375); test: analog potency on TNFa NF-kB signaling – cell-based, revised, SAR follow-up (AID 2337); format: functional
# Sequence of Tumor necrosis factor (P01375 whole entry): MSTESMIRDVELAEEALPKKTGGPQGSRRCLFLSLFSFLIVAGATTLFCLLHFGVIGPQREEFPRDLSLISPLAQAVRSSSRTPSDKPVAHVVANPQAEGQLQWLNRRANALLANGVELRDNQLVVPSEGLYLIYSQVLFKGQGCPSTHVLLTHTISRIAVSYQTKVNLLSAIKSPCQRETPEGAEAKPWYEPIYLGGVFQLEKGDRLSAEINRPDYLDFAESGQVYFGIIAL
# HEK293 [9] = test: cells; settings: Homo sapiens; remark: listed apart in the source
# HEK293 [10] = test: cells; settings: Homo sapiens; remark: listed apart in the source
# [11] = biological target: T3, High affinity choline transporter 1 (Homo sapiens, UniProt Q9GZV3); test: human choline transporter blockers, potency – cell-based, 5-point CRC, membrane potential dye, dose response (AID 504840); format: functional
# T3 sequence (Q9GZV3 whole entry): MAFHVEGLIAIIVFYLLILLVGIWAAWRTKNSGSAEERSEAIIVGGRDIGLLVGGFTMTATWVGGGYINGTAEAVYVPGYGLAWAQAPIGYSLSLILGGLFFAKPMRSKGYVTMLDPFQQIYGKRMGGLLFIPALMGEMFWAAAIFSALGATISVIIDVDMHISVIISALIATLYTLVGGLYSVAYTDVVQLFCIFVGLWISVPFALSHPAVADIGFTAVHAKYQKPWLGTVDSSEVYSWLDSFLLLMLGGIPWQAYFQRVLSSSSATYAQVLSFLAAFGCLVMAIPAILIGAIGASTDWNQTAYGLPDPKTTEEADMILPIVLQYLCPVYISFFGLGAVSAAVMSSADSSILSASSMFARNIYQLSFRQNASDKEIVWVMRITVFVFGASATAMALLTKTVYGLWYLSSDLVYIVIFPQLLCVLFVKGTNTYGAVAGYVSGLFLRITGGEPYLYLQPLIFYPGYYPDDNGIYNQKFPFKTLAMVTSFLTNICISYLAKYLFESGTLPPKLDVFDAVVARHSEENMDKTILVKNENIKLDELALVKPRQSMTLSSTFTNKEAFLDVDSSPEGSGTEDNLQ
# [12] = viability of PTEN-deleted HCT116 cells – cell-based, HCT116 PTEN knockout, dose response (AID 1047); format: functional;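 note: HCT116 colon tumor cells with PTEN knocked out; cells exposed to compound for 60 hours before readout; potency for loss of cell viability measured by luminescence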
# [13] = viability of HCT116 lacking mutant beta-catenin – cell-based, human colon tumor, dose response (AID 1045); format: functional;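 note: HCT116 colon tumor cells with beta catenin knocked out; cells exposed to compound for 60 hours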
# cells = format: functional
# [14] = THP-1 cell cytotoxicity, dose response, cytotoxicity control for non-replicating M. tuberculosis project (AID 489025); format: functional
# [15] = HepG2 cell cytotoxicity, dose response, cytotoxicity control for non-replicating M. tuberculosis project (AID 489018); format: functional; settings: Mycobacterium tuberculosis
# [16] = viability of uninfected HEp-2 cells – cell-based, HTS, cytotoxicity control for RSV inhibitor project, dose response (AID 2410); format: functional; settings: human respiratory syncytial virus
# Phospholipase A2 = Phospholipase A2 (Homo sapiens, UniProt P04054); format: functional;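 note: confirmatory dose-response counterscreen on phospholipase A2, testing hits that came from an ultra-high-throughput screen for ATG4B inhibitors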
# Sequence of Phospholipase A2 (P04054 whole entry): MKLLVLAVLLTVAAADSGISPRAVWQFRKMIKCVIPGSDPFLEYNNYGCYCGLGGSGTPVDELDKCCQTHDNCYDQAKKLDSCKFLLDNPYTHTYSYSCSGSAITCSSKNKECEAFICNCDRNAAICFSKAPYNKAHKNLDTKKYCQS
# Cysteine protease ATG4B = biological target: T4, Cysteine protease ATG4B (Homo sapiens, UniProt Q9Y4P1); format: functional;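 note: Fluorescence-based dose-response confirmation assay measuring inhibition of ATG4B activity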
# T4 sequence (Q9Y4P1 whole entry): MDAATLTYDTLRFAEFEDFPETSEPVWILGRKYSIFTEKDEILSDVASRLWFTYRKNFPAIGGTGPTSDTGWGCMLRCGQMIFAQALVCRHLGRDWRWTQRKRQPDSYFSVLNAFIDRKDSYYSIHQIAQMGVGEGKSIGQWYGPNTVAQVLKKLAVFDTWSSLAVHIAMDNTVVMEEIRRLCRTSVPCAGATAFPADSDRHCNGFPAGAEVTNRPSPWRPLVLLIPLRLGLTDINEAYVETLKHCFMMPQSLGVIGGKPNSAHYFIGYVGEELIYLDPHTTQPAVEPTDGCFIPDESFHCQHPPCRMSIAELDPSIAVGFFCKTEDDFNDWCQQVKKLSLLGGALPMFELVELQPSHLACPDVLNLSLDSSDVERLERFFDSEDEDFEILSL
# [17] = Vero E6 cell cytotoxicity, dose response, cytotoxicity control for non-replicating M. tuberculosis project, secondary assay (AID 492998); format: functional, VeroE6; settings: Vero C1008
# [18] = biological target: Glyceraldehyde-3-phosphate dehydrogenase (Homo sapiens, UniProt P04406)
# Sequence of Glyceraldehyde-3-phosphate dehydrogenase (P04406 whole entry): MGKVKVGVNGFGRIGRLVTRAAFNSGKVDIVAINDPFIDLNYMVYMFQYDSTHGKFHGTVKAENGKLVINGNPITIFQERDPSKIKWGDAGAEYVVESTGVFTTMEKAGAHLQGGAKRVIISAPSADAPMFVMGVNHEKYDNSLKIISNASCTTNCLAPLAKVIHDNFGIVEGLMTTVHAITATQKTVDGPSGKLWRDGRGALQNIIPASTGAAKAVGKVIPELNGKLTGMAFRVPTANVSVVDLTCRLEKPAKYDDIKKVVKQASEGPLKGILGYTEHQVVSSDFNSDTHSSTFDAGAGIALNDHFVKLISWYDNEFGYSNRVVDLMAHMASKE
# [19] = biological target: T5, Alkaline phosphatase, tissue-nonspecific isozyme (Homo sapiens, UniProt P05186); test: potency against alkaline phosphatase TNAP – biochemical, luminescent, dose response, SAR follow-up (AID 1056)
# T5 sequence (P05186 whole entry): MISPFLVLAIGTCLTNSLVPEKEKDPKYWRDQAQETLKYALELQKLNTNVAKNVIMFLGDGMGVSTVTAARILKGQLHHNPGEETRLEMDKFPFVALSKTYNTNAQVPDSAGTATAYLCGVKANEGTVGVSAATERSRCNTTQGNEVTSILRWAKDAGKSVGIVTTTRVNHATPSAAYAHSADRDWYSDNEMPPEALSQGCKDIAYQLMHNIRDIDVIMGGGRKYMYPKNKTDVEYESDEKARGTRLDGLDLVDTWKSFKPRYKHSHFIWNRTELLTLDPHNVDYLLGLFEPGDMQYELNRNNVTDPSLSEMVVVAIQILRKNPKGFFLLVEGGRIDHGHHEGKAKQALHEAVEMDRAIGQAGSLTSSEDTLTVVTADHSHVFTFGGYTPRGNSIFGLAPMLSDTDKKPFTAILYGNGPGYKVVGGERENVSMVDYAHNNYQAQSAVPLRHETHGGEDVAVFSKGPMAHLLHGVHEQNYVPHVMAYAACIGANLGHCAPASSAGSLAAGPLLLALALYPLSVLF
# [20] = NIH3T3 cell viability loss – ATP luminescence, mouse fibroblasts, counter-screen, dose response (AID 2010); format: functional, cell-based;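 note: cells exposed to compound for about 90 hours before reading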
# [21] = Trypanosoma cruzi growth suppression in host cells – NIH3T3 host cells, beta-gal luminescence, confirmation (AID 2044); format: functional, cell-based;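 note: intracellular parasites grown in NIH/3T3 mouse fibroblasts as host cells; luminescent beta-galactosidase reporter signal from transgenic T. cruzi replicating inside host cells; inhibitors lower the luminescence signal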
smiles,measurement,setting,value
O=C(O)c1cc(-c2ccc(Cl)s2)nc2ccccc12,EC50,[1],20.7 µM (not active)
same,IC50,[2],> 64.6 µM (inactive)
same,EC50,[3],42.7 µM (inactive)
same,IC50,Melanocortin receptor 4,> 64.6 µM (inactive)
same,EC50,[4],> 79.4 µM (not active)
CCOc1ccc(NC(=O)CNC(=O)c2nn(-c3ccc(OC)cc3)c(=O)c3ccccc23)cc1,EC50,[5],48.2 µM (inactive)
same,EC50,[6],> 99 µM (inactive)
COc1ccc(F)c(-c2nc(CN3CCN(c4ncnc5ccccc45)CC3)c(C)o2)c1,IC50,[7],3.93 µM (active)
same,IC50,HEK293 [8],13.7 µM (active)
same,IC50,Tumor necrosis factor,3.8 µM (active)
Cc1cccc(C)c1-n1nnnc1SCC(=O)c1c(N)n(C2CC2)c(=O)[nH]c1=O,EC50,[5],> 99 µM (inactive)
same,EC50,[6],> 99 µM (inactive)
N#CC1=C(N)S[C@H](C(=O)C23CC4CC(CC(C4)C2)C3)[C@H]1c1ccncc1,EC50,HEK293 [9],> 59.7 µM (inactive)
same,EC50,HEK293 [10],> 59.7 µM (inactive)
CCOC(=O)C1CCCN(C(=O)c2csc(-c3ccc4c(c3)CCO4)n2)C1 (stereo not drawn),IC50,[11],13.2 µM (active)
CCOC(=O)c1c(NC(=O)CSc2nnc(-c3c[nH]c4ccccc34)n2CCOC)sc2c1CCCCC2,EC50,[12],21.3 µM (active)
same,EC50,HEK293 [9],> 59.7 µM (inactive)
same,EC50,[13],26.3 µM (active)
same,EC50,HEK293 [10],> 59.7 µM (inactive)
COc1ccc(-c2cc(C(=O)Nc3cc(OC)cc(C(=O)Nc4cccc(C(F)(F)F)c4)c3)[nH]n2)cc1,IC50,[2],> 64.6 µM (inactive)
same,IC50,Melanocortin receptor 4,> 64.6 µM (inactive)
CCn1c(=O)cc(OCC(=O)NC(C)c2ccc3c(c2)OCCO3)c2ccccc21 (stereo not drawn),IC50,[11],15.8 µM (active)
CC(C)CCNCC(O)CON=C1c2ccccc2-c2ccccc21 (stereo not drawn),IC50,cells,16.8 µM (active)
same,CC50,[14],13.8 µM (active)
same,CC50,[15],14.4 µM (active)
same,CC50,[16],12.6 µM (active)
Cc1ccc(C(=O)Nc2nc(-c3ccco3)c(-c3ccco3)s2)o1,IC50,Phospholipase A2,5.79 µM (active)
same,IC50,Cysteine protease ATG4B,9.23 µM (active)
CC1CCc2c(sc(NC(=O)c3ccc(Br)cc3)c2C(=O)O)C1 (stereo not drawn),IC50,[7],0.375 µM (active)
same,IC50,HEK293 [8],4.72 µM (active)
same,IC50,Tumor necrosis factor,6.82 µM (active)
O=C(Nc1nnc(C2CC2)o1)c1ccc(S(=O)(=O)N2CCCCC2)cc1,CC50,[17],11.5 µM (active)
same,IC50,cells,10.3 µM (active)
same,CC50,[14],> 40 µM (active)
same,CC50,[15],> 20 µM (active)
COc1cccc(Cc2nnc(N3C(=O)c4ccccc4C3=O)[nH]2)c1,IC50,[18],> 100 µM (not active)
same,IC50,[19],1.19 µM (active)
Cn1c(=O)c2c(ncn2CC(=O)Nc2nc(-c3ccccc3Cl)cs2)n(C)c1=O,EC50,[5],> 99 µM (inactive)
same,EC50,[6],> 99 µM (inactive)
CCOC(=O)c1cnc2ccc(OCC)cc2c1N(C)Cc1ccccc1,IC50,[2],> 64.6 µM (inactive)
same,IC50,Melanocortin receptor 4,> 64.6 µM (inactive)
O=C(Nc1sc2c(c1C(=O)O)CCCC2)c1ccc(Br)cc1,IC50,[7],0.77 µM (active)
same,IC50,HEK293 [8],> 20 µM (inactive)
same,IC50,Tumor necrosis factor,2.25 µM (active)
CC(C)(C)N1C(=O)[C@H]2[C@@H](c3ccc(Br)cc3)N3C(=O)N(c4cccc(Br)c4)C(=O)[C@@]3(Cc3ccccc3)[C@H]2C1=O,EC50,[20],> 60 µM (not active)
same,EC50,HEK293 [9],> 59.7 µM (inactive)
same,EC50,[21],2.32 µM (active)
same,EC50,HEK293 [10],> 59.7 µM (inactive)
